The results in this text go back to patent publication US20230081426A1, “COMPOUNDS AND METHODS FOR KRAS MODULATION AND INDICATIONS THEREFOR” (Plexxikon Inc., priority 2020, published 2023).

The target in assay [1] is T1, G12C-mutant human KRAS (amino acid residues 1-188) (Homo sapiens, UniProt P01116, G12C).
T1 construct: G12D or G12C-mutant human KRAS (amino acid residues 1-188) with FLAG tag; made in house; host or cells: E. coli
Nature of the assay: KRAS Binding Disruption Assay (AlphaScreen; biotinylated KRpep-2d analogue or RAF1-RBD), G12C. As to conditions: geometric mean, read-out: KRAS GMean IC50 (uM) MUTATION: G12C. The method in brief: (§1)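 Mutant KRAS (5-20 nM) incubated 1 h at 25° C with test compound and 5-20 nM biotinylated KRpep-2d analogue or RAF1-RBD in 20 mM HEPES pH 7.5, 100 mM NaCl, 5 mM MgCl2, 0.01% Tween-20, 0.01% BSA.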

Assay [2] addresses T2, G12D-mutant human KRAS (amino acid residues 1-188) (Homo sapiens, UniProt P01116, G12D).
T2 construct: G12D or G12C-mutant human KRAS (amino acid residues 1-188) with FLAG tag; made in house; host or cells: E. coli
Briefly: KRAS Binding Disruption Assay (AlphaScreen; biotinylated KRpep-2d analogue or RAF1-RBD), G12D. The settings on record: KRAS G12D; geometric mean; read-out: KRAS GMean IC50 (uM) MUTATION: G12D. The method in brief: as §1
(In general: In Alpha technology, singlet oxygen from a donor bead excites a nearby acceptor bead.)

T1 sequence (P01116 1-188 isoform P01116-2 G12C): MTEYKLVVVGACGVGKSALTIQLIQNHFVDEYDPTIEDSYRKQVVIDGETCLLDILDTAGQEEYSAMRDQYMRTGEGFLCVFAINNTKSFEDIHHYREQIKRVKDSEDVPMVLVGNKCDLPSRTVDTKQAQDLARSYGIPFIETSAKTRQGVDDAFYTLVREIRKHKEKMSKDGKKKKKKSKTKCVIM
T2 sequence (P01116 1-188 isoform P01116-2 G12D): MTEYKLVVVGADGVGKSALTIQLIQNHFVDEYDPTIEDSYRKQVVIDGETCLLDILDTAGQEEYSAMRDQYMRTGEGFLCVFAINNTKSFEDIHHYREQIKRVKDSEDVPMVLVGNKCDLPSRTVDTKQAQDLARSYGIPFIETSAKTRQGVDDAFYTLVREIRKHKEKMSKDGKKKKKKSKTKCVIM

Broadly, the IC50 is the midpoint of a concentration-inhibition curve. As to `Cc1cccc2[nH]nc(-c3ccc4c(N5C[C@H]6CC[C@@H](C5)N6)nc(OC[C@@H]5CCCN5C)nc4c3F)c12` [P-0712, 4-((1R,5S)-3,8-diazabicyclo[3.2.1]octan-3-yl)-8-fluoro-7-(4-methyl-1H-indazol-3-yl)-2-(((S)-1-methylpyrrolidin-2-yl)methoxy)quinazoline], the IC50 in assay [1] and in assay [2] was 10 to 100 µM each time.

As for `Oc1cc(-c2ccc3c(N4C[C@H]5CC[C@@H](C4)N5)nc(OCCN4CCC4)nc3c2F)c2ccccc2c1` [P-0713, 4-(2-(2-(azetidin-1-yl)ethoxy)-4-((1R,5S)-3,8-diazabicyclo[3.2.1]octan-3-yl)-8-fluoroquinazolin-7-yl)naphthalen-2-ol], the IC50 in assay [1] is 10 to 100 µM; in assay [2], 0.0001 to 10 µM.

Regarding `Oc1cc(-c2ccc3c(N4C[C@H]5CC[C@@H](C4)N5)nc(OC[C@@H]4CCCN4)nc3c2F)c2ccccc2c1` [P-0714, 4-(4-((1R,5S)-3,8-diazabicyclo[3.2.1]octan-3-yl)-8-fluoro-2-(((S)-pyrrolidin-2-yl)methoxy)quinazolin-7-yl)naphthalen-2-ol], the IC50 in assay [1] lay in the range of 10 to 100 µM; in assay [2] it was 0.0001 to 10 µM.

For `Cc1ncoc1COc1nc(N2C[C@H]3CC[C@@H](C2)N3)c2ccc(-c3cc(O)cc4ccccc34)c(F)c2n1` [P-0715, 4-(4-((1R,5S)-3,8-diazabicyclo[3.2.1]octan-3-yl)-8-fluoro-2-((4-methyloxazol-5-yl)methoxy)quinazolin-7-yl)naphthalen-2-ol], the IC50 in assay [1] and in assay [2] was 10 to 100 µM in each case.

For `Oc1cc(-c2ccc3c(N4C[C@H]5CC[C@@H](C4)N5)nc(OCc4cnco4)nc3c2F)c2ccccc2c1` [P-0716, 4-(4-((1R,5S)-3,8-diazabicyclo[3.2.1]octan-3-yl)-8-fluoro-2-(oxazol-5-ylmethoxy)quinazolin-7-yl)naphthalen-2-ol], the results for the IC50 in assay [1] and in assay [2] were 10 to 100 µM and 0.0001 to 10 µM, respectively.

With `CC(=O)NC(C)(C)COc1nc(N2C[C@H]3CC[C@@H](C2)N3)c2ccc(-c3cc(O)cc4ccccc34)c(F)c2n1` [P-0717, N-(1-((4-((1R,5S)-3,8-diazabicyclo[3.2.1]octan-3-yl)-8-fluoro-7-(3-hydroxynaphthalen-1-yl)quinazolin-2-yl)oxy)-2-methylpropan-2-yl)acetamide], the half-maximal inhibitory concentration (IC50) is 10 to 100 µM in assay [1] and 0.0001 to 10 µM in assay [2].

Regarding `CC(C)(COc1nc(N2C[C@H]3CC[C@@H](C2)N3)c2ccc(-c3cc(O)cc4ccccc34)c(F)c2n1)NS(C)(=O)=O` [P-0718, N-(1-((4-((1R,5S)-3,8-diazabicyclo[3.2.1]octan-3-yl)-8-fluoro-7-(3-hydroxynaphthalen-1-yl)quinazolin-2-yl)oxy)-2-methylpropan-2-yl)methanesulfonamide], the IC50 in assay [1] fell in the range of 10 to 100 µM; in assay [2] it was 0.0001 to 10 µM.

Take `CC(C)(CO)COc1nc(N2C[C@H]3CC[C@@H](C2)N3)c2ccc(-c3cc(O)cc4ccccc34)c(F)c2n1` [P-0719, 4-(4-((1R,5S)-3,8-diazabicyclo[3.2.1]octan-3-yl)-8-fluoro-2-(3-hydroxy-2,2-dimethylpropoxy)quinazolin-7-yl)naphthalen-2-ol]: the IC50 in assay [1] and in assay [2] was 0.0001 to 10 µM each time.

`COC(C)(C)COc1nc(N2C[C@H]3CC[C@@H](C2)N3)c2ccc(-c3cc(O)cc4ccccc34)c(F)c2n1` [P-0720, 4-(4-((1R,5S)-3,8-diazabicyclo[3.2.1]octan-3-yl)-8-fluoro-2-(2-methoxy-2-methylpropoxy)quinazolin-7-yl)naphthalen-2-ol]: the IC50 lay in the range of 10 to 100 µM in assay [1] and 0.0001 to 10 µM in assay [2].

`Oc1cc(-c2ccc3c(N4C[C@H]5CC[C@@H](C4)N5)nc(OCC4(O)CCCC4)nc3c2F)c2ccccc2c1` [P-0721, 4-(4-((1R,5S)-3,8-diazabicyclo[3.2.1]octan-3-yl)-8-fluoro-2-((1-hydroxycyclopentyl)methoxy)quinazo-lin-7-yl)naphthalen-2-ol]: the IC50 lay in the range of 10 to 100 µM in assay [1] and 0.0001 to 10 µM in assay [2].

As for `Oc1cc(-c2ccc3c(N4C[C@H]5CC[C@@H](C4)N5)nc(OCC4(O)CCC4)nc3c2F)c2ccccc2c1` [P-0722, 4-(4-((1R,5S)-3,8-diazabicyclo[3.2.1]octan-3-yl)-8-fluoro-2-((1-hydroxycyclobutyl)methoxy)quinazolin-7-yl)naphthalen-2-ol], the IC50 in assay [1] fell in the range of 10 to 100 µM; in assay [2], 0.0001 to 10 µM.

On to `Fc1c(-c2c[nH]c3cccc(C(F)(F)F)c23)ccc2c(N3C[C@H]4CC[C@@H](C3)N4)nc(OCC34CCCN3CCC4)nc12` [P-0723, 4-((1R,5S)-3,8-diazabicyclo[3.2.1]octan-3-yl)-8-fluoro-2-((tetrahydro-1H-pyrrolizin-7a(5H)-yl)methoxy)-7-(4-(trifluoromethyl)-1H-indol-3-yl)quinazoline], for which the IC50 in assay [1] and in assay [2] was 0.0001 to 10 µM in each case.

In the case of `CN1CCC[C@H]1COc1nc(N2C[C@H]3CC[C@@H](C2)N3)c2cc(F)c(-c3n[nH]c4ccc(F)cc34)c(F)c2n1` [P-0724, 4-((1R,5S)-3,8-diazabicyclo[3.2.1]octan-3-yl)-6,8-difluoro-7-(5-fluoro-1H-indazol-3-yl)-2-(((S)-1-methylpyrrolidin-2-yl)methoxy)quinazoline], the IC50 in assay [1] lay within 100 to 1000 µM; in assay [2], 10 to 100 µM.

Regarding `CN1CCC[C@H]1COc1nc(N2C[C@H]3CC[C@@H](C2)N3)c2cc(F)c(-c3n[nH]c4ccccc34)c(F)c2n1` [P-0725, 4-((1R,5S)-3,8-diazabicyclo[3.2.1]octan-3-yl)-6,8-difluoro-7-(1H-indazol-3-yl)-2-(((S)-1-methylpyrrolidin-2-yl)methoxy)quinazoline], the IC50 in assay [1] lay in the range of 100 to 1000 µM; in assay [2] it was 10 to 100 µM.

Regarding `CN1CCC[C@H]1COc1nc(N2C[C@H]3CC[C@@H](C2)N3)c2cc(F)c(-c3c[nH]c4ccc(F)cc34)c(F)c2n1` [P-0726, 4-((1R,5S)-3,8-diazabicyclo[3.2.1]octan-3-yl)-6,8-difluoro-7-(5-fluoro-1H-indol-3-yl)-2-(((S)-1-methylpyrrolidin-2-yl)methoxy)quinazoline], the IC50 in assay [1] was in the range of 10 to 100 µM; in assay [2], 0.0001 to 10 µM.

Regarding `COc1cccc2ncnc(-c3ccc4c(N5C[C@H]6CC[C@@H](C5)N6)nc(OC[C@@H]5CCCN5C)nc4c3F)c12` [P-0727, 4′-((1R,5S)-3,8-diazabicyclo[3.2.1]octan-3-yl)-8′-fluoro-5-methoxy-2′-(((S)-1-methylpyrrolidin-2-yl)methoxy)-4,7′-biquinazoline], the IC50 in assay [1] and in assay [2] was 100 to 1000 µM throughout.

With `CN1CCC[C@H]1COc1nc(N2C[C@H]3CC[C@@H](C2)N3)c2ccc(-c3nccc4cccc(Cl)c34)c(F)c2n1` [P-0728, 4-((1R,5S)-3,8-diazabicyclo[3.2.1]octan-3-yl)-7-(8-chloroisoquinolin-1-yl)-8-fluoro-2-(((S)-1-methylpyrrolidin-2-yl)methoxy)quinazoline], the IC50 in assay [1] fell in the range of 100 to 1000 µM; in assay [2], 10 to 100 µM.

As to `CN1CCC[C@H]1COc1nc(N2C[C@H]3CC[C@@H](C2)N3)c2ccc(-c3c[nH]c4cccc(C(F)(F)F)c34)cc2n1` [P-0729, 4-((1R,5S)-3,8-diazabicyclo[3.2.1]octan-3-yl)-2-(((S)-1-methylpyrrolidin-2-yl)methoxy)-7-(4-(trifluoromethyl)-1H-indol-3-yl)quinazoline], the IC50 in assay [1] was in the range of 10 to 100 µM; in assay [2], 0.0001 to 10 µM.
